Patent publication US7091202B2, “4-arylspirocycloalkyl-2-aminopyrimidine carboxamide KCNQ potassium channel modulators” (Bristol-Myers Squibb Company, priority 2004, dated 2006)
pEC50: −log10 of the molar value.

target: T1, hQ23 (HEK-293 cell line stably transfected with one of the members of the KCNQ family) (Homo sapiens, UniProt O43525+O43526); assay: Thallium flux assay for KCNQ channel blockers (FLIPR, BTC dye); type: cell-based; details: Table 2; thallium flux, HEK-293
T1 construct: expressed in transfected cells; host or cells: HEK-293, stably transfected
T1 sequence (O43526 whole entry): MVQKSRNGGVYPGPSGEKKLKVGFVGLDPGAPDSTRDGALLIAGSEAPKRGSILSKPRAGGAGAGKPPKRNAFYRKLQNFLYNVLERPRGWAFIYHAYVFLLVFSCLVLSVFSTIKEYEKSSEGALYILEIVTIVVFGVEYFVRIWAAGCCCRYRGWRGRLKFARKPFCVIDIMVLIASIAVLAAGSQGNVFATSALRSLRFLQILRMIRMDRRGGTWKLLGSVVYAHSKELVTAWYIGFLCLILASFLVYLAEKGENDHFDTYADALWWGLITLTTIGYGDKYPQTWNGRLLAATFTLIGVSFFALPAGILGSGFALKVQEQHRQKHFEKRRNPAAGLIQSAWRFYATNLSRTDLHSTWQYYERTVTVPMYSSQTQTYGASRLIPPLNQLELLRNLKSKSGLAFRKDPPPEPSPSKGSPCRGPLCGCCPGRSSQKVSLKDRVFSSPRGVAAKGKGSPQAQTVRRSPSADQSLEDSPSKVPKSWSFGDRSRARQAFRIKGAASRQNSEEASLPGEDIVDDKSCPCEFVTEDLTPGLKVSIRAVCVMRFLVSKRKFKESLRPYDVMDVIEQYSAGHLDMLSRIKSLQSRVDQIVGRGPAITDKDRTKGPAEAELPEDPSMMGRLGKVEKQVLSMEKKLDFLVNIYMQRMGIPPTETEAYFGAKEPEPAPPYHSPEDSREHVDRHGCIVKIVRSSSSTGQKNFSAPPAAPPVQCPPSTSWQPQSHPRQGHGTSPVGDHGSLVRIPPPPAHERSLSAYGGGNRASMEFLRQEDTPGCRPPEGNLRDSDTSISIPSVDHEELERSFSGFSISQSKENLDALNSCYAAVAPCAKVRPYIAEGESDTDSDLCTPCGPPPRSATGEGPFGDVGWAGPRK
T1 sequence (O43525 whole entry): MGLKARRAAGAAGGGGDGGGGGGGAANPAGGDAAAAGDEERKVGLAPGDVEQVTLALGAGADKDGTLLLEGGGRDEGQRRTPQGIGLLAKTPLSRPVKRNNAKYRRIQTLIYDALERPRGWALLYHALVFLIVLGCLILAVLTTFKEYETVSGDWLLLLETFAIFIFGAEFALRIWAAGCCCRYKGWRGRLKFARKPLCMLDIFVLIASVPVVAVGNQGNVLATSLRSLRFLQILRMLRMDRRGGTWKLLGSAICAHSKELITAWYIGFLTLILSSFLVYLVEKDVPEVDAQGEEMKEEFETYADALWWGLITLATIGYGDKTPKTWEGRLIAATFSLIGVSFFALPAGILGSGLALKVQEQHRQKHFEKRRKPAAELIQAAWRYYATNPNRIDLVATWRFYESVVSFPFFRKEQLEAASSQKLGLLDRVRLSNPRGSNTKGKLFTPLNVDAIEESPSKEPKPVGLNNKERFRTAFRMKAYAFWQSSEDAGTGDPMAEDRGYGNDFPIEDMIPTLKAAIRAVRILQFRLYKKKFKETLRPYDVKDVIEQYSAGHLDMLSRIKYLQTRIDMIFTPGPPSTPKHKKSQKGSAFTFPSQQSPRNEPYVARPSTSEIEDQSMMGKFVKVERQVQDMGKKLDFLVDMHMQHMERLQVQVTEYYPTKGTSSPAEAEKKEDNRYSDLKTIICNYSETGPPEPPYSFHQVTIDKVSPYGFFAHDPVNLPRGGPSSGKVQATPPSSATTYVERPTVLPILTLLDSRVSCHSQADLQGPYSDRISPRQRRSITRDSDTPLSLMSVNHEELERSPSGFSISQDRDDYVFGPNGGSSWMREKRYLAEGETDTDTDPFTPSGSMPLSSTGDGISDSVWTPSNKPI
In short: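 FLIPR thallium flux readout (BTC dye, 2 μM AM ester) in stably transfected KCNQ HEK-293 cells, chloride-free HEPES buffer pH 7.3, Tl2SO4 stimulus. IC50s were fitted with a single-site logistic equation across 10 points at 1:3 dilutions, defined as 50% of positive-control block; minimal active concentration meant signal ≥4 SD over DMSO controls.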

Compared with `O=C(NCc1cc(F)cc(C(F)(F)F)c1)c1cnc(N2CCCC2)nc1C1(c2ccccc2)CC1` [Example 45, 5-pyrimidinecarboxamide, N-[[3-fluoro-5-(trifluoromethyl)phenyl]methyl]-4-(1-phenylcyclopropyl)-2-(1-pyrrolidinyl)-], `CC1CCCN(c2ncc(C(=O)NC(C)c3ccc(F)cc3)c(C3(c4ccccc4)CC3)n2)C1` (stereo not drawn) [Example 50, 5-pyrimidinecarboxamide, N-[1-(4-fluorophenyl)ethyl]-2-(3-methyl-1-piperidinyl)-4-(1-phenylcyclopropyl)-] is 0.51 log units lower in pEC50: 6.68 for the first, 6.17 for the second. The first is the more potent here.

`CC1CCCN(c2ncc(C(=O)N[C@H](C)c3cccc4ccccc34)c(C3(c4ccccc4)CC3)n2)C1` (stereo partly drawn) [Example 34, 5-pyrimidinecarboxamide, 2-(3-methyl-1-piperidinyl)-N-[(1R)-1-(1-naphthalenyl)ethyl]-4-(1-phenylcyclopropyl)-] was tested, and the pEC50 was 6.97.

same assay, conditions: Table 3; thallium flux, HEK-293

Going from `CC1CCN(c2ncc(C(=O)NCc3ccc4c(c3)OCO4)c(C3(c4ccc(Cl)cc4)CCC3)n2)CC1` [Example 58, 5-pyrimidinecarboxamide, N-(1,3-benzodioxol-5-ylmethyl)-4-[1-(4-chlorophenyl)cyclobutyl]-2-(4-methyl-1-piperidinyl)-] to `CC1CCC(Nc2ncc(C(=O)NCc3ccc(F)cc3F)c(C3(c4ccc(Cl)cc4)CCC3)n2)CC1` (stereo not drawn) [Example 65, 5-pyrimidinecarboxamide, 4-[1-(4-chlorophenyl)cyclobutyl]-N-[(2,4-difluorophenyl)methyl]-2-[(4-methylcyclohexyl)amino]-], the pEC50 rises from 7.05 to 7.25 (0.20 log units). The second is the more potent here.

same assay, conditions: hQ23 cells, thallium flux

Going from `CCC(C)Nc1ncc(C(=O)NC(C)c2cccc3ccccc23)c(C2(c3ccc(Cl)cc3)CCCC2)n1` (stereo not drawn) [Example 162, 5-pyrimidinecarboxamide, 4-[1-(4-chlorophenyl)cyclopentyl]-2-[(1-methylpropyl)amino]-N-[1-(1-naphthalenyl)ethyl]-] to `CC(NC(=O)c1cnc(N2CCCC2)nc1C1(c2ccc(Cl)cc2)CCCC1)c1cccc2ccccc12` (stereo not drawn) [Example 158, 5-pyrimidinecarboxamide, 4-[1-(4-chlorophenyl)cyclopentyl]-N-[1-(1-naphthalenyl)ethyl]-2-(1-pyrrolidinyl)-], the pEC50 rises from 6.95 to 7.40 (0.45 log units).

`CC1CCN(c2ncc(C(=O)NCc3ccc(C(F)(F)F)cc3)c(C3(c4ccc(Cl)cc4)CCCC3)n2)CC1` [Example 203, 5-pyrimidinecarboxamide, 4-[1-(4-chlorophenyl)cyclopentyl]-2-(4-methyl-1-piperidinyl)-N-[[4-(trifluoromethyl)phenyl]methyl]-] and `CC1CCN(c2ncc(C(=O)NCc3ccc(Cl)c(Cl)c3)c(C3(c4ccccc4)CCCC3)n2)CC1` [Example 108, 5-pyrimidinecarboxamide, N-[(3,4-dichlorophenyl)methyl]-2-(4-methyl-1-piperidinyl)-4-(1-phenylcyclopentyl)-] are within 0.2 log units of each other in pEC50: 7.49 for the first, 7.43 for the second.

First: CC1CCCN(c2ncc(C(=O)N(C)CCc3ccccc3)c(C3(c4ccccc4)CCCC3)n2)C1 (stereo not drawn) [Example 80, 5-pyrimidinecarboxamide, N-methyl-2-(3-methyl-1-piperidinyl)-4-(1-phenylcyclopentyl)-N-(2-phenylethyl)-]
Second: CC1CCN(c2ncc(C(=O)N(C)Cc3ccccc3)c(C3(c4ccc(F)cc4)CCCC3)n2)CC1 [Example 206, 5-pyrimidinecarboxamide, 4-[1-(4-fluorophenyl)cyclopentyl]-N-methyl-2-(4-methyl-1-piperidinyl)-N-(phenylmethyl)-]
The pEC50 of the first is 0.52 log units lower: 6.06 for the first, 6.58 for the second.

First: O=C(NCc1ccc(Cl)cc1Cl)c1cnc(NC2CC2)nc1C1(c2ccccc2)CCCC1 [Example 109, 5-pyrimidinecarboxamide, 2-(cyclopropylamino)-N-[(2,4-dichlorophenyl)methyl]-4-(1-phenylcyclopentyl)-]
Second: CC1CCN(c2ncc(C(=O)NCc3ccc(Cl)cc3Cl)c(C3(c4ccccc4)CCCC3)n2)CC1 [Example 113, 5-pyrimidinecarboxamide, N-[(2,4-dichlorophenyl)methyl]-2-(4-methyl-1-piperidinyl)-4-(1-phenylcyclopentyl)-]
The pEC50 of the first is 1.70 log units lower: 6.30 for the first, 8.00 for the second.

First: CN(C)CCNc1ncc(C(=O)NCc2cc(F)cc(C(F)(F)F)c2)c(C2(c3ccccc3)CCCC2)n1 [Example 129, 5-pyrimidinecarboxamide, 2-[[2-(dimethylamino)ethyl]amino]-N-[[3-fluoro-5-(trifluoromethyl)phenyl]methyl]-4-(1-phenylcyclopentyl)-]
Second: O=C(NCc1ccc(F)cc1F)c1cnc(N2CCCC2)nc1C1(c2ccccc2)CCCC1 [Example 117, 5-pyrimidinecarboxamide, N-[(2,4-difluorophenyl)methyl]-4-(1-phenylcyclopentyl)-2-(1-pyrrolidinyl)-]
The pEC50 of the first is 0.80 log units higher: 7.70 for the first, 6.90 for the second.

Compared with `O=C(NCc1cccc2ccccc12)c1cnc(NC2CCCC2)nc1C1(c2ccc(Cl)cc2)CCCC1` [Example 172, 5-pyrimidinecarboxamide, 4-[1-(4-chlorophenyl)cyclopentyl]-2-(cyclopentylamino)-N-(1-naphthalenylmethyl)-], `CN(Cc1ccccc1)C(=O)c1cnc(NC2CCCC2)nc1C1(c2ccc(Cl)cc2)CCCC1` [Example 141, 5-pyrimidinecarboxamide, 4-[1-(4-chlorophenyl)cyclopentyl]-2-(cyclopentylamino)-N-methyl-N-(phenylmethyl)-] is 0.31 log units higher in pEC50: 6.43 for the first, 6.74 for the second.

Compared with `CC1CCC(Nc2ncc(C(=O)NCc3ccc(F)cc3F)c(C3(c4ccc(Cl)cc4)CCCC3)n2)CC1` (stereo not drawn) [Example 186, 5-pyrimidinecarboxamide, 4-[1-(4-chlorophenyl)cyclopentyl]-N-[(2,4-difluorophenyl)methyl]-2-[(4-methylcyclohexyl)amino]-], `CCN(C)C(=O)c1cnc(NC2CCC(C)CC2)nc1C1(c2ccc(F)cc2)CCCC1` (stereo not drawn) [Example 225, 5-pyrimidinecarboxamide, N-ethyl-4-[1-(4-fluorophenyl)cyclopentyl]-N-methyl-2-[(4-methylcyclohexyl)amino]-] is 0.55 log units lower in pEC50: 6.89 for the first, 6.34 for the second. The first is the more potent here.

In the case of `CCC(C)Nc1ncc(C(=O)NCc2ccc3c(c2)OCO3)c(C2(c3ccc(Cl)cc3)CCCC2)n1` (stereo not drawn) [Example 155, 5-pyrimidinecarboxamide, N-(1,3-benzodioxol-5-ylmethyl)-4-[1-(4-chlorophenyl)cyclopentyl]-2-[(1-methylpropyl)amino]-], the pEC50 was 6.47.

same assay, conditions: hQ23 cells, thallium flux assay

First: CC1CCN(c2ncc(C(=O)NC(C)c3cccc4ccccc34)c(C3(c4ccc(F)cc4)CCCC3)n2)CC1 (stereo not drawn) [Example 245, 5-pyrimidinecarboxamide, 4-[1-(4-fluorophenyl)cyclopentyl]-2-(4-methyl-1-piperidinyl)-N-[1-(1-naphthalenyl)ethyl]-]
Second: CC1CCN(c2ncc(C(=O)NCc3ccc(C(F)(F)F)cc3)c(C3(c4ccc(F)cc4)CCCC3)n2)CC1 [Example 288, 5-pyrimidinecarboxamide, 4-[1-(4-fluorophenyl)cyclopentyl]-2-(4-methyl-1-piperidinyl)-N-[[4-(trifluoromethyl)phenyl]methyl]-]
The pEC50 of the first is 0.88 log units higher: 8.00 for the first, 7.12 for the second.

`CC(NC(=O)c1cnc(N2CCCC2)nc1C1(c2ccc(F)cc2)CCCC1)c1ccc(F)cc1` (stereo not drawn) [Example 282, 5-pyrimidinecarboxamide, 4-[1-(4-fluorophenyl)cyclopentyl]-N-[1-(4-fluorophenyl)ethyl]-2-(1-pyrrolidinyl)-] and `O=C(NCc1ccc2c(c1)OCO2)c1cnc(NC2CC2)nc1C1(c2ccc(F)cc2)CCCC1` [Example 233, 5-pyrimidinecarboxamide, N-(1,3-benzodioxol-5-ylmethyl)-2-(cyclopropylamino)-4-[1-(4-fluorophenyl)cyclopentyl]-] are within 0.2 log units of each other in pEC50: 6.23 for the first, 6.36 for the second.
